Ki data for 13 compounds are collected here from patent US8778957B2, “CGRP receptor antagonists” (Merck Sharp & Dohme Corp., priority 2009, dated 2014).

For the test, the target named is recombinant human CL receptor/RAMP1 (Homo sapiens (Human), UniProt O60894+Q16602). Nature of the test: Recombinant receptor binding assay (125I-hCGRP). To be noted: membranes of HEK 293 cells expressing human CL receptor/RAMP1, 10 pM 125I-hCGRP. As to the method: RECOMBINANT RECEPTOR: Human CL receptor (Genbank accession number L76380) was subcloned into the expression vector pIREShyg2 (BD Biosciences Clontech) as a 5′NheI and 3′ PmeI fragment. Human RAMP 1 (Genbank accession number AJ001014) was subcloned into the expression vector pIRESpuro2 (BD Biosciences Clontech) as a 5′NheI and 3′NotI fragment. HEK 293 cells (human embryonic kidney cells; ATCC #CRL-1573) were cultured in DMEM with 4.5 g/L glucose, 1 mM sodium pyruvate and 2 mM glutamine supplemented with 10% fetal bovine serum (FBS), 100 units/mL penicillin and 100 μg/mL streptomycin, and maintained at 37° C. and 95% humidity. Cells were subcultured by treatment with 0.25% trypsin with 0.1% EDTA in HBSS. Stable cell line generation was accomplished by co-transfecting 10 μg of DNA with 30 μg Lipofectamine 2000 (Invitrogen) in 75 cm^2 flasks. CL receptor and RAMP1 expression constructs were co-transfected in equal amounts. Twenty-four hours after transfection the cells were diluted and selective medium (growth medium+300 μg/mL hygromycin and 1 μg/mL puromycin) was added the following day. A clonal cell line was generated by single cell deposition utilizing a FACS Vantage SE (Becton Dickinson). Growth medium was adjusted to 150 μg/mL hygromycin and 0.5 μg/mL puromycin for cell propagation.
Sequence of recombinant human CL receptor/RAMP1 (Q16602 23-461): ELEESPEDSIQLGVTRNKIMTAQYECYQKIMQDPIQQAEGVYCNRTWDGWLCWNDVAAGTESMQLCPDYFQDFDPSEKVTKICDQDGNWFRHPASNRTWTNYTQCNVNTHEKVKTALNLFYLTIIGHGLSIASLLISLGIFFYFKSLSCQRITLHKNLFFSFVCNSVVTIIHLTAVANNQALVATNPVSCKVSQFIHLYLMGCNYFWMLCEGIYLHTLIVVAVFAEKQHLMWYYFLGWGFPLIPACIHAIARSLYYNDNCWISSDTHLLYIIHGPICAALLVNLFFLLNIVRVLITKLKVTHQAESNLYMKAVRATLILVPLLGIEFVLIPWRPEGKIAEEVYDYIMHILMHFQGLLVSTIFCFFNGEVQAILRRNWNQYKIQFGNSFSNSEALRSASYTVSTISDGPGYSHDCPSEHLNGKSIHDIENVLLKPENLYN
Sequence of recombinant human CL receptor/RAMP1 (O60894 27-148): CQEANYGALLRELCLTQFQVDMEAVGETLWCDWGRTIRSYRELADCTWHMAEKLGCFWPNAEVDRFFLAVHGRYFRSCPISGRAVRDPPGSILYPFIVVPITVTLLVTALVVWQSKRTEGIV
RECOMBINANT RECEPTOR BINDING ASSAY: Cells expressing recombinant human CL receptor/RAMP1 were washed with PBS and harvested in harvest buffer containing 50 mM HEPES, 1 mM EDTA and Complete protease inhibitors (Roche). The cell suspension was disrupted with a laboratory homogenizer and centrifuged at 48,000 g to isolate membranes. The pellets were resuspended in harvest buffer plus 250 mM sucrose and stored at −70° C. For binding assays, 20 μg of membranes were incubated in 1 ml binding buffer (10 mM HEPES, pH 7.4, 5 mM MgCl2, and 0.2% BSA) for 3 hours at room temperature containing 10 pM ^125I-hCGRP (GE Healthcare) and antagonist. The assay was terminated by filtration through 96-well GFB glass fiber filter plates (PerkinElmer) that had been blocked with 0.05% polyethyleneimine. The filters were washed 3 times with ice-cold assay buffer (10 mM HEPES, pH 7.4 and 5 mM MgCl2). Scintillation fluid was added and the plates were counted on a Topeount (Packard). Non-specific binding was determined and the data analysis was carried out with the apparent dissociation constant (Ki) determined by using a non-linear least squares fitting the bound CPM data to the equation below:
[formula] Where Y is observed CPM bound, Ymax is total bound counts, Ymin is non specific bound counts, (Ymax−Ymin) is specific bound counts, % Imax is the maximum percent inhibition, % I min is the minimum percent inhibition, radiolabel is the probe, and the Kd is the apparent dissociation constant for the radioligand for the receptor as determined by Hot saturation experiments.
On to `CC1(C)CN(Cc2ccc3cc4c(cc3n2)C[C@]2(C4)C(=O)Nc3ncccc32)[C@@H](Cc2ccccc2)C(=O)N1` [Example 3, (7S)-2-{[(2S)-2-Benzyl-5,5-dimethyl-3-oxopiperazin-1-yl]methyl}-6,8-dihydrospiro[cyclopenta[g]quinoline-7,3′-pyrrolo[2,3-b]pyridin]-2′(1′H)-one], for which the Ki worked out at 0.77 nM.

Regarding `O=C1CC2(CCN(Cc3ccc4cc5c(cc4n3)CC3(C5)C(=O)Nc4ncccc43)CC2)Oc2ccccc21` (stereo not shown) [Example 114], the Ki turned out to be 15000 nM.

In the case of `O=C1NC2(CCCC2)CN(Cc2ccc3cc4c(cc3n2)C[C@]2(C4)C(=O)Nc3ncccc32)C1c1ccccc1` (stereo partly shown) [Example 69], the Ki stood at 43 nM.

In the case of `O=C1N[C@H](Cc2ccccc2)CN(Cc2ccc3cc4c(cc3n2)C[C@]2(C4)C(=O)Nc3ncccc32)C1c1ccccc1` (stereo partly shown) [Example 84], the Ki is 0.72 nM.

Consider `O=C1Nc2ncccc2[C@@]12Cc1cc3ccc(CN4CCNCC4)nc3cc1C2` [Example 76], for which the Ki turned out to be 0.73 nM.

Take `CC(C)(C)OC(=O)N1CCN(Cc2ccc3cc4c(cc3n2)C[C@]2(C4)C(=O)Nc3ncccc32)CC1c1ccccc1` (stereo partly shown) [Example 61]: the Ki turned out to be 58 nM.

Turning to `O=C1Nc2ncccc2[C@@]12Cc1cc3ccc(CN4CCNCC4c4ccccc4)nc3cc1C2` (stereo partly shown) [Example 64], the Ki was 6.6 nM.

Take `CN1C(=O)NC(=O)C12Cc1cc3ccc(CN4CCC(Cc5ccccc5)CC4)nc3cc1C2` (racemic) [Example 7, (±)-2-[(4-Benzylpiperidin-1-yl)methyl]-3′-methyl-6,8-dihydro-2′H,5′H-spiro[cyclopenta[g]quinoline-7,4′-imidazolidine]-2′,5′-dione]: the Ki turned out to be 3800 nM.

As for `O=C1NC2(CCCC2)CN(Cc2ccc3cc4c(cc3n2)C[C@]2(C4)C(=O)Nc3ncccc32)[C@@H]1Cc1ccccc1` [Example 88], the Ki was determined as 2.6 nM.

For `O=C1Nc2ncccc2C12Cc1cc3ccc(CN4CCc5c([nH]c6ccccc56)C4)nc3cc1C2` (stereo not shown) [Example 45], the Ki amounted to 180 nM.

With `O=C1NC2(CCCC2)CN(Cc2ccc3cc4c(cc3n2)C[C@]2(C4)C(=O)Nc3ncccc32)C1Cc1ccccc1` (stereo partly shown) [Example 87], the Ki is 0.34 nM.

For `CN1C(=O)NC(=O)[C@]12Cc1cc3ccc(CN4C(=O)C(C)(C)Nc5ccccc54)nc3cc1C2` [Example 8, (7R)-2-[(3,3-Dimethyl-2-oxo-3,4-dihydroquinoxalin-1(2H)-yl)methyl]-3′-methyl-6,8-dihydro-2′H,5′H-spiro[cyclopenta[g]quinoline-7,4′-imidazolidine]-2′,5′-dione], the Ki was found to be 35 nM.

For `CC1(Cc2ccccc2)C(=O)NC2(CCCC2)CN1Cc1ccc2cc3c(cc2n1)C[C@]1(C3)C(=O)Nc2ncccc21` (stereo partly shown) [Example 95], the Ki worked out at 17 nM.

A word on the Ki: it is the dissociation constant of the complex between target and ligand, obtained from inhibition or displacement.
